Tests used:
α-glucosidase I and II = test: α-Glucosidase I and II specificity assay; assay type: biochemical
[1] = target: T1, glucosylceramide synthase (Homo sapiens, UniProt Q16739); test: Glucosylceramide synthase inhibition in microsomes from human melanoma A375 cells; assay type: biochemical
T1 construct: microsomes were prepared from human melanoma A375 cells by sonication and centrifugation; endogenous in cells; host or cells: human melanoma A375 cells (microsomes)
T1 sequence (Q16739 1-394): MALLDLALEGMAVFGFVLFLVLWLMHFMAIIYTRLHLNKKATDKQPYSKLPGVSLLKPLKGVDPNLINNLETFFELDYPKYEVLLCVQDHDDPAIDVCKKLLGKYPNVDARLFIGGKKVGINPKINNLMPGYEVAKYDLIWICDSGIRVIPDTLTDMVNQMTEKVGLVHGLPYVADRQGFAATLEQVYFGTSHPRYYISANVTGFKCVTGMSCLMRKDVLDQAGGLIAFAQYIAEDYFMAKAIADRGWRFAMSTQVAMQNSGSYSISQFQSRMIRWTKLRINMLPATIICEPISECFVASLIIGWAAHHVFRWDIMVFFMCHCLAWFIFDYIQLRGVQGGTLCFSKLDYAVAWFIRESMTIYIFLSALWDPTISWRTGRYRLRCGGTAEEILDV
Method: An alternative assay for activity measured inhibition of glucosylceramide synthase in human cell derived microsomes. In this assay, microsomes were prepared from human melanoma A375 cells by sonication and centrifugation. […] Following the incubation, fluorescently labeled glucosylceramide and unreacted ceramide were separated and quantitated by reverse-phase HPLC and fluorescence detection.

Fabry mice = test: Monotherapy of Fabry mice, drug in diet; assay type: in vivo, mouse; conditions: 300 mg/kg per day in diet, 11 months
Method: For the monotherapy studies, Fabry mice were put on study at 1 month old (prevention model). Treatment groups received Formula (I) Hemitartrate (Genzyme Corp., Cambridge, Mass.) as a component of the pellet food diet. The drug was formulated at 0.15% (w/w) in standard 5053 mouse chow (TestDiet, Richmond, Ind.) and provided ad libitum.
Quantitation of GL-3 was by Tandem Mass Spectrometry essentially as for GL-1.
Hot plate Assay was performed as described previously (Ziegler, R J et al. Molec. Ther. 15(3), 492-500 (2007).
SRT was evaluated in a mouse model of Fabry disease, which is caused by a deficiency of α-galactosidase A activity. Therapy with Formula (I) Hemitartrate started with one month-old Fabry mice and continued until the mice reached one year of age. […] Behavioral tests (i.e., hot-plate assay) and biochemical tests (i.e., urinalysis and GL-3 level analysis in tissues/blood/urine) of the mice were performed bimonthly.

[2] = Approximate solubility in organic solvents from solvent addition; assay type: physicochemical; conditions: organic solvent or mixture, thermodynamic from solid, room temperature (20-25° C.)
Method: A weighed sample (usually 20 mg) was treated with aliquots of the test solvent. Aliquots were typically 100-200 μL. Between solvent additions, the mixture was shaken or sonicated. When the solids dissolved, as judged by visual inspection, the solution was allowed to evaporate under ambient conditions in an open vial covered with aluminum foil perforated with pinholes. Solubilities were estimated from these experiments based on the total solvent added to obtain a clear solution.

lactase = target: T2, lactase (Rattus norvegicus, UniProt Q02401); test: Intestinal glycosidase assay in rat tissue homogenates; assay type: biochemical; conditions: concentrations up to 2500 μM
T2 construct: The intestinal glycosidase enzymes were assayed in rat tissue homogenates; from tissue; host or cells: rat intestinal tissue homogenate
T2 sequence (Q02401 868-1928): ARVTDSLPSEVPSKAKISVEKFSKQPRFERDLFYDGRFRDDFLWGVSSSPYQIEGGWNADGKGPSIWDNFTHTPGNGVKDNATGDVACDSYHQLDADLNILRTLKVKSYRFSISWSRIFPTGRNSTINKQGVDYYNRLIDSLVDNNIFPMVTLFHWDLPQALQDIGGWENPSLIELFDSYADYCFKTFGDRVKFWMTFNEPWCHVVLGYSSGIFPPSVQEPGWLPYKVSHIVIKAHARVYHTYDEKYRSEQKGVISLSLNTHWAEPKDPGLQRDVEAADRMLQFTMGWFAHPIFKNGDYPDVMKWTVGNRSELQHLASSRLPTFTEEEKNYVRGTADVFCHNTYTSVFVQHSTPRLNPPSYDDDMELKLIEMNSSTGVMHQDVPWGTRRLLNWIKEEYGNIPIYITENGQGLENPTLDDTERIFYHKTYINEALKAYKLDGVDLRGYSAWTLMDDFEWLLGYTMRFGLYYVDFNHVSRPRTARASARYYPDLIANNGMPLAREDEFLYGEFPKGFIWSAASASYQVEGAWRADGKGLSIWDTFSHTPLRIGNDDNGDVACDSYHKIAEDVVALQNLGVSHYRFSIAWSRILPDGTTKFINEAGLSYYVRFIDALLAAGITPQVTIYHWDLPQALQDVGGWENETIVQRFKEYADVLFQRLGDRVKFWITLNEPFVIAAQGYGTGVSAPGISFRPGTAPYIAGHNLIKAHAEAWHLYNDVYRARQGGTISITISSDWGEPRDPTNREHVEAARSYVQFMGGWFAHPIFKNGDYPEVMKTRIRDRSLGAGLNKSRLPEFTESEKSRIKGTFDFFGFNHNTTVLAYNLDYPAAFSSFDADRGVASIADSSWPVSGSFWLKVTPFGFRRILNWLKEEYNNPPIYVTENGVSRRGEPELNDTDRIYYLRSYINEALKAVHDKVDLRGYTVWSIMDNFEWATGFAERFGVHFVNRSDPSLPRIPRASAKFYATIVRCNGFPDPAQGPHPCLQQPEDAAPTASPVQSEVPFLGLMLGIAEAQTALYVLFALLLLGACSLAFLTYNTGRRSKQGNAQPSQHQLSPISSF
Method: (§1) The specificity of Formula (I) Hemitartrate was evaluated in a series of in vitro cell-based and cell-free assays. The intestinal glycosidase enzymes were assayed in rat tissue homogenates (see U. Andersson, et al., Biochem. Pharm. 59 (2000) 821-829, the entire teachings of which are incorporated herein by reference), and the glycogen debranching enzyme was assayed in a cell free assay as described (see U. Andersson, et al., Biochem. Pharm. 67 (2004) 697-705, the entire teachings of which are incorporated herein by reference).

sucrase = target: T3, sucrase (Rattus norvegicus, UniProt P23739); test: as above; assay type: biochemical
T3 construct: The intestinal glycosidase enzymes were assayed in rat tissue homogenates; from tissue; host or cells: rat intestinal tissue homogenate
T3 sequence (P23739 whole entry): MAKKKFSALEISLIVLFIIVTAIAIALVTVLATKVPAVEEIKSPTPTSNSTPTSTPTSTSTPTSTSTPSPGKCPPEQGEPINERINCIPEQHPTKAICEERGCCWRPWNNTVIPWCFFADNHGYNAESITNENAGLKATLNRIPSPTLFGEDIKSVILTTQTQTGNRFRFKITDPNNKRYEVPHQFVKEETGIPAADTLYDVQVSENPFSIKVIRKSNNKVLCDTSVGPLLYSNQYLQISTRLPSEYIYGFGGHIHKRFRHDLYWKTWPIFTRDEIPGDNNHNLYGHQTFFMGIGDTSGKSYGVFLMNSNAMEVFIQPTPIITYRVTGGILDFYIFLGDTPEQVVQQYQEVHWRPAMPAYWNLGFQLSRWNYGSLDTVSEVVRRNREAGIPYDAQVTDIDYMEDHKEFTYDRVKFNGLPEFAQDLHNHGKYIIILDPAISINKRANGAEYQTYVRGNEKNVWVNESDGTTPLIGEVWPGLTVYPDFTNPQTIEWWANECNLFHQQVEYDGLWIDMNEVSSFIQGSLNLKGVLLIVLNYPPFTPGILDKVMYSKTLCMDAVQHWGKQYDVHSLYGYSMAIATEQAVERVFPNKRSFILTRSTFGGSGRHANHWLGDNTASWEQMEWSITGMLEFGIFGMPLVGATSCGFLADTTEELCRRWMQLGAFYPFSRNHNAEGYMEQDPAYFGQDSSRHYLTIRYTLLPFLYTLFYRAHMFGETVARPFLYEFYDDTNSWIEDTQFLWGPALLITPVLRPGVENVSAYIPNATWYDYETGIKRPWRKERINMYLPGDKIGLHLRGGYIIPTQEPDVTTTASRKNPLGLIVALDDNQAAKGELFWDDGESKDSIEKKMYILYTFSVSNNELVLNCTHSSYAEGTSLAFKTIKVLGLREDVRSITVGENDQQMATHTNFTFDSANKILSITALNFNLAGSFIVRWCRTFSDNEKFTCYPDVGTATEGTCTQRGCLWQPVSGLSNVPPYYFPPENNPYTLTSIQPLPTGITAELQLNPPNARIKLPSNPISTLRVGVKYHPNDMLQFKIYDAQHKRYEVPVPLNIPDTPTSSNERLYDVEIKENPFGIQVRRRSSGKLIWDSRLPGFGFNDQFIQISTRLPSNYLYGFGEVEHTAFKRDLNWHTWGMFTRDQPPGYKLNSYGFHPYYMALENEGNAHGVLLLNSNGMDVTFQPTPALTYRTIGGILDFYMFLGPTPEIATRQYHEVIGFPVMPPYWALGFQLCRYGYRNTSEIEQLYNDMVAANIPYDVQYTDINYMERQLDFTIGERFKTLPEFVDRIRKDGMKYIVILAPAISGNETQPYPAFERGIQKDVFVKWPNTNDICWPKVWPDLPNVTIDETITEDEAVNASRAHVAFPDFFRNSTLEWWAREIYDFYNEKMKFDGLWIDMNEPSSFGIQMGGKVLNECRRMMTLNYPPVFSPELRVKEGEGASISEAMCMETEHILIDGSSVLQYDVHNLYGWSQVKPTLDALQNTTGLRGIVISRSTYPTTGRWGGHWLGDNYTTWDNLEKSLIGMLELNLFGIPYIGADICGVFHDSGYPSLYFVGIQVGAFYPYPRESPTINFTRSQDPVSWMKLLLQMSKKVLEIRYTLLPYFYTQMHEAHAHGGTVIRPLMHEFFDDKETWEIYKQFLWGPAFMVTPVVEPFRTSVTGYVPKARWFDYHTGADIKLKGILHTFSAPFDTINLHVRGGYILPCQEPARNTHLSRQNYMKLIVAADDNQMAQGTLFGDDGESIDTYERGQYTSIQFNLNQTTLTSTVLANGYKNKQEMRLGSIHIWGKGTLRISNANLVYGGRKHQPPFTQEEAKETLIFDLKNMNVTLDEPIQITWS
Method: as §1

maltase = test: as above; assay type: biochemical
Method: as §1

Which “inhibition of α-glucosidase I and II” value (α-glucosidase I and II; concentrations up to 2500 μM) does the source give for `CCCCCCCC(=O)N[C@H](CN1CCCC1)[C@H](O)c1ccc2c(c1)OCCO2` [Formula (I) Hemitartrate] here?
Its value is “No detectable inhibition”.

What about the IC50 (α-glucosidase I and II; read-out: Enzyme specificities, IC50: α-Glucosidase I and II) of the same molecule?
The IC50 was over 2500 µM.

What about the “differential in concentration required to inhibit glucosylceramide synthase compared to any of the other enzymes tested” value [1] of the same molecule?
Its value is “approximately 40,000”.

What about the “presentation of insensitivity to an aversive heat stimulus (hot-plate assay)” value (Fabry mice) of the same molecule?
The value was “later presentation”.

And the “urinalysis factors (urine volume, creatinine and sodium levels)” value (Fabry mice)?
The value was “prevention of deterioration”.

What about the solubility ([2]; Acetone) of the same molecule?
Its solubility is under 5000 µg/mL.

And the solubility ([2]; Acetonitrile)?
The solubility was under 5000 µg/mL.

And the solubility ([2]; Dichloromethane)?
The solubility was 100000 µg/mL.

And the solubility ([2]; Ethanol)?
Its solubility is 29000 µg/mL.

And the solubility ([2]; Ethyl Acetate)?
Its solubility is under 5000 µg/mL.

And the solubility ([2]; Isopropyl alcohol)?
The solubility was under 5000 µg/mL.

What about the solubility ([2]; Methanol) of the same molecule?
The solubility was over 200000 µg/mL.

What about the solubility ([2]; Methyl t-butyl ether (TBME)) of the same molecule?
Its solubility is under 5000 µg/mL.

What about the solubility ([2]; Tetrahydrofuran (THF)) of the same molecule?
Its solubility is under 5000 µg/mL.

What about the solubility ([2]; Toluene) of the same molecule?
The solubility was under 5000 µg/mL.

What about the solubility ([2]; p-Dioxane) of the same molecule?
The solubility was under 5000 µg/mL.

And the inhibition of lactase (lactase)?
Its inhibition of lactase is “No detectable inhibition”.

And the inhibition of sucrase (sucrase; concentrations up to 2500 μM)?
Its inhibition of sucrase is “No detectable inhibition”.

What about the Ki (sucrase; read-out: Enzyme specificities, Ki: Sucrase inhibition) of the same molecule?
The Ki was over 10 µM.

What about the inhibition of maltase (maltase; concentrations up to 2500 μM) of the same molecule?
The inhibition of maltase was “No detectable inhibition”.

And the Ki (maltase; read-out: Enzyme specificities, Ki: Maltase inhibition)?
Its Ki is over 10 µM.

From US10888547B2, “Amorphous and a crystalline form of genz 112638 hemitartrate as inhibitor of glucosylceramide synthase” (Genzyme Corporation, priority 2009, dated 2021)
